This assay has as its target T1, human M2 receptor (Homo sapiens, UniProt P08172).
T1 sequence (P08172 1-466): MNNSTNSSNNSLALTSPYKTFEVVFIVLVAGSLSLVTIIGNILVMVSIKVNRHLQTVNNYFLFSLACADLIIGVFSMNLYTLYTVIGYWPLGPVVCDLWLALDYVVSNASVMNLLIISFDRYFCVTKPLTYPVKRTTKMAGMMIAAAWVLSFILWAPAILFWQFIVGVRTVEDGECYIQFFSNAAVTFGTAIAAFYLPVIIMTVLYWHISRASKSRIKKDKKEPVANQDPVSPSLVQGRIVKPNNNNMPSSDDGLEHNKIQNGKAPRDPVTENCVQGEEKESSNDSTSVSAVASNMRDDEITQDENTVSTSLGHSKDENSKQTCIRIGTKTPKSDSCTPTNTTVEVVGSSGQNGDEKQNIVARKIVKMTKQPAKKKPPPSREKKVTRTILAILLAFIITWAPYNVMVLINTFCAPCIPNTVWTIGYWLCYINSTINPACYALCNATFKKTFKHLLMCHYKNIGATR
The following applies: for EC50: Receptor activity EC50, allosteric potency at EC20 acetylcholine, in some cases mean of two or more determinations.

Setting [1] is: read-out: Efficiency, boosting of the acetylcholine effect at EC20 acetylcholine concentration, M2-GIRK1/4 reporter cells.

The structures appear in SMILES notation. Read-outs that look alike come from different tables or passages of the source.

As to `COC1(C)CN(c2ccc3c(=O)c(C(=O)N[C@H](C4CC4)C(F)(F)F)cn(-c4c(F)cc(F)cc4F)c3n2)C1` [Example 605, N-[(1R)-1-Cyclopropyl-2,2,2-trifluoroethyl]-7-(3-methoxy-3-methylazetidin-1-yl)-4-oxo-1-(2,4,6-trifluorophenyl)-1,4-dihydro-1,8-naphthyridine-3-carboxamide], the EC50 (M2-GIRK1/4 reporter cells) came to 25 nM. Besides, the Emax under setting [1] is 98%.
Regarding `CC(C)(CC(F)(F)F)NC(=O)c1cn(-c2c(F)cc(F)cc2F)c2nc(N3C[C@@H](O)[C@@H](O)C3)ccc2c1=O` [Example 612, 7-[(3R,4S)-3,4-Dihydroxypyrrolidin-1-yl]-4-oxo-N-(4,4,4-trifluoro-2-methylbutan-2-yl)-1-(2,4,6-trifluorophenyl)-1,4-dihydro-1,8-naphthyridine-3-carboxamide], a half-maximal response (M2-GIRK1/4 reporter cells) (EC50) required 29 nM. For the same compound, the Emax under setting [1] amounted to 100%.
In the same order, the values of `O=C(Nc1c(Cl)cccc1Cl)c1cn(-c2c(F)cc(F)cc2F)c2nc(N3CCNC3=O)ccc2c1=O` [Example 613, N-(2,6-Dichlorophenyl)-4-oxo-7-(2-oxoimidazolidin-1-yl)-1-(2,4,6-trifluorophenyl)-1,4-dihydro-1,8-naphthyridine-3-carboxamide] are 33 nM and 95.5%.
For `CC(C)(NC(=O)c1cn(-c2c(F)cc(F)cc2F)c2nc(N3CCNC3=O)ccc2c1=O)C(F)F` [Example 614, N-(1,1-Difluoro-2-methylpropan-2-yl)-4-oxo-7-(2-oxoimidazolidin-1-yl)-1-(2,4,6-trifluorophenyl)-1,4-dihydro-1,8-naphthyridine-3-carboxamide] the same measures were 36 nM and 94.5%.
In the same order, the values of `O=C(NC1(C(F)(F)F)CCC1)c1cn(-c2c(F)cc(F)cc2F)c2nc(N3C[C@@H](O)[C@H](O)C3)ccc2c1=O` [Example 625, 7-[(3R,4R)-3,4-Dihydroxypyrrolidin-1-yl]-4-oxo-N-[1-(trifluoromethyl)cyclobutyl]-1-(2,4,6-trifluorophenyl)-1,4-dihydro-1,8-naphthyridine-3-carboxamide] are 43 nM and 100%.
With `O=C(N[C@H](C1CC1)C(F)(F)F)c1cn(-c2c(F)cccc2F)c2nc(N3CCNC3=O)ccc2c1=O` [Example 629, N-[(1R)-1-Cyclopropyl-2,2,2-trifluoroethyl]-1-(2,6-difluorophenyl)-4-oxo-7-(2-oxoimidazolidin-1-yl)-1,4-dihydro-1,8-naphthyridine-3-carboxamide], under “M2-GIRK1/4 reporter cells”, the EC50 is 44 nM. In addition, under setting [1], the Emax is 100%.
`O=C(N[C@@H](C1CC1)C(F)(F)F)c1cn(-c2c(F)cc(F)cc2F)c2nc(N3C[C@@H](O)[C@@H](O)C3)ccc2c1=O` [Example 630, N-[(1S)-1-Cyclopropyl-2,2,2-trifluoroethyl]-7-[(3R,4S)-3,4-dihydroxypyrrolidin-1-yl]-4-oxo-1-(2,4,6-trifluorophenyl)-1,4-dihydro-1,8-naphthyridine-3-carboxamide] yielded an EC50 (M2-GIRK1/4 reporter cells) of 48 nM. In addition, where the note is “read-out: Efficiency”, the Emax is 100%.
Where the note is “M2-GIRK1/4 reporter cells”, `O=C(NC1(CC(F)(F)F)CC1)c1cn(-c2c(F)cc(F)cc2F)c2nc(N3C[C@@H](O)CC3=O)ccc2c1=O` [Example 632, 7-[(4S)-4-Hydroxy-2-oxopyrrolidin-1-yl]-4-oxo-N-[1-(2,2,2-trifluoroethyl)cyclopropyl]-1-(2,4,6-trifluorophenyl)-1,4-dihydro-1,8-naphthyridine-3-carboxamide] had an EC50 of 49 nM. Under setting [1], the Emax turned out to be 100%.
In the same order, the values of `COC(=O)N1CCN(c2ccc3c(=O)c(C(=O)NC45CC(C4)C5)cn(-c4c(F)cc(F)cc4F)c3n2)CC1` [Example 633, Methyl 4-[6-(bicyclo[1.1.1]pent-1-ylcarbamoyl)-5-oxo-8-(2,4,6-trifluorophenyl)-5,8-dihydro-1,8-naphthyridin-2-yl]piperazine-1-carboxylate] are 52 nM and 93.8%.
Compound `O=C(NC1(CC(F)(F)F)CC1)c1cn(-c2c(F)cc(F)cc2F)c2nc(N3C[C@@H](O)[C@H](O)C3)ccc2c1=O` [Example 635, 7-[(3R,4R)-3,4-Dihydroxypyrrolidin-1-yl]-4-oxo-N-[1-(2,2,2-trifluoroethyl)cyclopropyl]-1-(2,4,6-trifluorophenyl)-1,4-dihydro-1,8-naphthyridine-3-carboxamide] displayed an EC50 (M2-GIRK1/4 reporter cells) of 59 nM. Besides, under setting [1], the Emax turned out to be 100%.
`NC(=O)N1CCN(c2ccc3c(=O)c(C(=O)Nc4c(Cl)cccc4Cl)cn(-c4c(F)cc(F)cc4F)c3n2)CC1` [Example 636] had an EC50 (M2-GIRK1/4 reporter cells) of 60 nM. Also, the Emax under setting [1] worked out at 98.1%.
For `CC[C@H](NC(=O)c1cn(-c2c(F)cccc2F)c2nc(N3CCNC3=O)ccc2c1=O)C(F)(F)F` [Example 637, 1-(2,6-Difluorophenyl)-4-oxo-7-(2-oxoimidazolidin-1-yl)-N-[(2)-1,1,1-trifluorobutan-2-yl]-1,4-dihydro-1,8-naphthyridine-3-carboxamide] the same measures were 60 nM and 93%.
In the same order, the values of `CC[C@@H](NC(=O)c1cn(-c2c(F)cccc2F)c2nc(N3CCNC3=O)ccc2c1=O)C(F)(F)F` [Example 638, 1-(2,6-Difluorophenyl)-4-oxo-7-(2-oxoimidazolidin-1-yl)-N-[(2R)-1,1,1-trifluorobutan-2-yl]-1,4-dihydro-1,8-naphthyridine-3-carboxamide] are 63 nM and 100%.
In the same order, the values of `CC[C@@H](NC(=O)c1cn(-c2ccc(F)cc2F)c2nc(N3C(=O)CC(O)C3C)ccc2c1=O)C(F)(F)F` (stereo partly drawn) [Example 640, 1-(2,4-Difluorophenyl)-7-[3-hydroxy-2-methyl-5-oxopyrrolidin-1-yl]-4-oxo-N-[(2R)-1,1,1-trifluorobutan-2-yl]-1,4-dihydro-1,8-naphthyridine-3-carboxamide] are 69 nM and 91.3%.
Regarding `COC1(C)CN(c2ccc3c(=O)c(C(=O)NC45CC(C4)C5)cn(-c4c(F)cc(F)cc4F)c3n2)C1` [Example 641, N-(Bicyclo[1.1.1]pent-1-yl)-7-(3-methoxy-3-methylazetidin-1-yl)-4-oxo-1-(2,4,6-trifluorophenyl)-1,4-dihydro-1,8-naphthyridine-3-carboxamide], a half-maximal effect (M2-GIRK1/4 reporter cells) (EC50) was put at 71 nM. Further, under setting [1], the Emax was 100%.
Under “M2-GIRK1/4 reporter cells”, `O=C(N[C@@H](C1CC1)C(F)(F)F)c1cn(-c2c(F)cc(F)cc2F)c2nc(N3C[C@H](O)[C@@H](O)C3)ccc2c1=O` [Example 642, N-[(1 S)-1-Cyclopropyl-2,2,2-trifluoroethyl]-7-[(3S,4S)-3,4-dihydroxypyrrolidin-1-yl]-4-oxo-1-(2,4,6-trifluorophenyl)-1,4-dihydro-1,8-naphthyridine-3-carboxamide] yielded a concentration giving a half-maximal response (EC50) of 72 nM. The Emax (read-out: Efficiency) turned out to be 100%.
Compound `CC[C@@H](NC(=O)c1cn(-c2c(Cl)cc(F)cc2Cl)c2nc(N3C[C@@H](O)[C@H](O)C3)ccc2c1=O)C(F)(F)F` [Example 643, 1-(2,6-Dichloro-4-fluorophenyl)-7-[(3R,4R)-3,4-dihydroxypyrrolidin-1-yl]-4-oxo-N-[(2R)-1,1,1-trifluorobutan-2-yl]-1,4-dihydro-1,8-naphthyridine-3-carboxamide] gave an EC50 (M2-GIRK1/4 reporter cells) of 73 nM. The Emax under setting [1] was determined as 92%.

For orientation: EC50 means the concentration that produces a half-maximal response. A high value points to weaker potency.
